Measured values: ChEMBL document CHEMBL5352389, “Design and synthesis of chromone-based monoamine oxidase B inhibitors with improved drug-like properties” (Eur J Med Chem, 2022)

Experiments:
[1] = target: T1, Amine oxidase [flavin-containing] A (Homo sapiens, UniProt P21397); experiment: Inhibition of human MAO-A using p-tyramine as substrate at 10 uM incubated for 15 mins by Amplex red and horseradish peroxidase based fluorescence assay; conditions: 0.25 h
T1 sequence (P21397 whole entry): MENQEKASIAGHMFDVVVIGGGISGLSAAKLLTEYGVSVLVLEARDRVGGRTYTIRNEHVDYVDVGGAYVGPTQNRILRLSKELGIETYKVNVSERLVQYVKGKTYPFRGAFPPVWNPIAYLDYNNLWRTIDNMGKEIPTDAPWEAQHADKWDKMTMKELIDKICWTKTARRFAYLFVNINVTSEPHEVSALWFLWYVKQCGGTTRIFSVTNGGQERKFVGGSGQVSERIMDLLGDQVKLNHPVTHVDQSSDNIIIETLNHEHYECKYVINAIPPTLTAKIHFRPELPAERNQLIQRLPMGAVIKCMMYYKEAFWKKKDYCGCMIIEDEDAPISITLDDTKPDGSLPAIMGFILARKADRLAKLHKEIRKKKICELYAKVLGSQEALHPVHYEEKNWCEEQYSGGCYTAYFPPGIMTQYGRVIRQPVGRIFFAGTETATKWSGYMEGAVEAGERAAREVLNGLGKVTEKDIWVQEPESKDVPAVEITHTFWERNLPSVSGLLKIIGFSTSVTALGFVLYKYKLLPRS

[2] = target: T2, Amine oxidase [flavin-containing] B (Homo sapiens, UniProt P27338); experiment: Inhibition of human MAO-B using p-tyramine as substrate incubated for 15 mins by Amplex red and horseradish peroxidase based fluorescence assay
T2 sequence (P27338 whole entry): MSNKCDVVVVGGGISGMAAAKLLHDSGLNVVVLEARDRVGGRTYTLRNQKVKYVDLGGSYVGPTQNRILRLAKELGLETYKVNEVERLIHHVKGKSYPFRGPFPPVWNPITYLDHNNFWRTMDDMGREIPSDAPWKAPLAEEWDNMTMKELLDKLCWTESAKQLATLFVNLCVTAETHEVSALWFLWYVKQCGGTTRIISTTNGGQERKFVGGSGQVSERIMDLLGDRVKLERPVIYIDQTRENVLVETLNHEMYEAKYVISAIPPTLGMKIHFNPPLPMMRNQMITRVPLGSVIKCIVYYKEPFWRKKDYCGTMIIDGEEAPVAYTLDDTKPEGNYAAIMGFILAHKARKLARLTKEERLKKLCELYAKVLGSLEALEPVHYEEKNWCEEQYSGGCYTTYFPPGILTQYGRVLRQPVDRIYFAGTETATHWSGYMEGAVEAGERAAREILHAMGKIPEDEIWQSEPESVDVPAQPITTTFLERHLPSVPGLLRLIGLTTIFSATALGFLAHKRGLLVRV

Homo sapiens = species on record: Homo sapiens; experiment: Selectivity index, ratio of IC50 for human MAO-A to IC50 for human MAO-B
[3] = target: T2, Amine oxidase [flavin-containing] B; experiment: Inhibition of human MAO-B using p-tyramine as substrate at 10 uM incubated for 15 mins by Amplex red and horseradish peroxidase based fluorescence assay; conditions: 0.25 h
[4] = target: T1, Amine oxidase [flavin-containing] A; experiment: Inhibition of human MAO-A using p-tyramine as substrate incubated for 15 mins by Amplex red and horseradish peroxidase based fluorescence assay
[5] = Cytotoxicity against human SH-SY5Y cells assessed as cell viability by measuring metabolic activity upto 10 uM incubated for 24 hrs by resazurin dye based assay relative to control; assay type: toxicity; conditions: read-out: Activity
[6] = Cytotoxicity against human SH-SY5Y cells assessed as cell viability by measuring lysosomal activity upto 10 uM incubated for 24 hrs by neutral red uptake assay relative to control; assay type: toxicity, cell-based; conditions: read-out: Activity
SH-SY5Y [7] = experiment: Iron(III) chelating activity in FeNTA-treated human SH-SY5Y cells assessed as cell viability by measuring lysosomal activity at 10 uM measured after 24 hrs by neutral red uptake assay (reference value: 66.5 +/- […] %); assay type: cell-based
SH-SY5Y [8] = experiment: Iron(III) chelating activity in FeNTA-treated human SH-SY5Y cells assessed as cell viability by measuring lysosomal activity at 1 to 10 uM measured after 24 hrs by neutral red uptake assay (reference value: 66.5 +/- […] %); assay type: cell-based; conditions: dose 1-10 µM
[9] = target: T3, MAO-A (amine oxidase [flavin-containing] A) (Homo sapiens, UniProt P21397); experiment: Inhibition of human MAO-A using p-tyramine as substrate incubated for 15 mins by Amplex red and horseradish peroxidase based fluorescence assay relative to control; conditions: human MAO-A enzyme, probe p-tyramine
T3 sequence (P21397 whole entry): T1 sequence (P21397 whole entry)

Row | SMILES | inhibition (INH) [1] | IC50 [2] [µM] | Ratio IC50 (Homo sapiens) | also measured
1 | Cc1ccc(NC(=O)c2coc3ccc(O)cc3c2=O)cc1C | Not Active | 0.262 | > 38 | –
2 | COc1ccc2oc(C(=O)Nc3ccc(C)c(C)c3)cc(=O)c2c1 | Not Active | – | – | inhibition (INH) [3]: Not Active
3 | COc1ccc2oc(C(=O)Nc3ccc(Cl)cc3)cc(=O)c2c1 | Not Active | – | – | inhibition (INH) [3]: Not Active
4 | COc1ccc2oc(C(=O)Nc3ccc(O)cc3)cc(=O)c2c1 | Not Active | – | – | inhibition (INH) [3]: Not Active
5 | COc1ccc2oc(C(=O)Nc3cccc(Cl)c3)cc(=O)c2c1 | Not Active | – | – | inhibition (INH) [3]: Not Active
6 | O=C(Nc1ccc(O)cc1)c1coc2ccc(O)cc2c1=O | Not Active | 4.83 | > 2.1 | –
7 | COc1ccc2occ(C(=O)Nc3ccccc3)c(=O)c2c1 | Not Active | – | > 239 | –
8 | Cc1ccc(NC(=O)c2cc(=O)c3cc(O)ccc3o2)cc1 | Not Active | 0.0551 | > 181 | –
9 | O=C(Nc1cccc(Cl)c1)c1coc2ccc(O)cc2c1=O | Not Active | 0.0298 | > 336 | –
10 | O=C(Nc1ccc(Cl)cc1)c1coc2ccc(O)cc2c1=O | – | 0.0972 | 64 | IC50 [4]: 6.19 µM
11 | Cc1ccc(NC(=O)c2cc(=O)c3cc(O)ccc3o2)cc1C | – | 0.0291 | 116 | IC50 [4]: 3.37 µM
12 | COc1ccc2occ(C(=O)Nc3ccc(C)cc3)c(=O)c2c1 | Not Active | – | > 48 | –
13 | COc1ccc2occ(C(=O)Nc3ccc(C)c(C)c3)c(=O)c2c1 | Not Active | 0.0284 | > 352 | –
14 | COc1ccc2oc(C(=O)Nc3ccccc3)cc(=O)c2c1 | Not Active | – | – | inhibition (INH) [3]: Not Active
15 | O=C(Nc1ccccc1)c1coc2cccc(O)c2c1=O | Not Active | 0.013 | > 769 | viability at 24 h, up to 10 µM [5]: ≥ 94.4%; viability at 24 h, up to 10 µM [6]: ≥ 94.4%; Activity (SH-SY5Y [7]): 74.4%
16 | COc1ccc2occ(C(=O)Nc3ccc(O)cc3)c(=O)c2c1 | Not Active | – | > 15 | –

Row | SMILES | inhibition (INH) [1] | IC50 [2] [µM] | Ratio IC50 (Homo sapiens) | also measured
17 | O=C(Nc1ccc(Cl)cc1)c1cc(=O)c2cc(O)ccc2o1 | Not Active | 0.0143 | > 700 | viability at 24 h, up to 10 µM [5]: ≥ 94.4%; viability at 24 h, up to 10 µM [6]: ≥ 94.4%
18 | COc1ccc2occ(C(=O)Nc3ccc(Cl)cc3)c(=O)c2c1 | Not Active | – | > 970 | viability at 24 h, up to 10 µM [5]: ≥ 94.4%; viability at 24 h, up to 10 µM [6]: ≥ 94.4%
19 | COc1ccc2occ(C(=O)Nc3cccc(Cl)c3)c(=O)c2c1 | Not Active | 0.0068 | > 1470 | viability at 24 h, up to 10 µM [5]: ≥ 94.4%; viability at 24 h, up to 10 µM [6]: ≥ 94.4%
20 | O=C(Nc1ccc(O)cc1)c1cc(=O)c2cc(O)ccc2o1 | Not Active | 1.03 | > 9.7 | –
21 | COc1ccc2oc(C(=O)Nc3ccc(C)cc3)cc(=O)c2c1 | – | – | > 0.061 | inhibition (INH) [3]: Not Active; IC50 [4]: 0.607 µM
22 | O=C(Nc1ccc(Cl)cc1)c1coc2cccc(O)c2c1=O | Not Active | 0.0083 | > 1200 | viability at 24 h, up to 10 µM [5]: ≥ 94.4%; viability at 24 h, up to 10 µM [6]: ≥ 94.4%; Activity (SH-SY5Y [8]): 74.4%
23 | O=C(Nc1cccc(Cl)c1)c1cc(=O)c2cc(O)ccc2o1 | – | 0.0689 | 130 | IC50 [4]: 9 µM
24 | O=C(Nc1ccc(O)cc1)c1coc2cccc(O)c2c1=O | Not Active | 0.598 | > 17 | –
25 | C[C@H](NCc1ccc(OCc2cccc(F)c2)cc1)C(N)=O [SAFINAMIDE] | – | – | – | inhibition at 0.25 h [9]: 23.7%
26 | O=C(Nc1ccccc1)c1cc(=O)c2cc(O)ccc2o1 | Not Active | 0.0313 | > 319 | –
27 | Cc1ccc(NC(=O)c2coc3ccc(O)cc3c2=O)cc1 | Not Active | 0.344 | > 29 | –
28 | O=C(Nc1ccccc1)c1coc2ccc(O)cc2c1=O | Not Active | 0.24 | > 42 | –
29 | O=C(Nc1cccc(Cl)c1)c1coc2cccc(O)c2c1=O | Not Active | 0.025 | > 400 | viability at 24 h, up to 10 µM [5]: ≥ 94.4%; viability at 24 h, up to 10 µM [6]: ≥ 94.4%; Activity (SH-SY5Y [8]): 74.4%
30 | Cc1ccc(NC(=O)c2coc3cccc(O)c3c2=O)cc1 | Not Active | 0.0157 | > 637 | viability at 24 h, up to 10 µM [5]: ≥ 94.4%; viability at 24 h, up to 10 µM [6]: ≥ 94.4%; Activity (SH-SY5Y [8]): 74.4%
31 | Cc1ccc(NC(=O)c2coc3cccc(O)c3c2=O)cc1C | Not Active | 0.0154 | > 649 | viability at 24 h, up to 10 µM [5]: ≥ 94.4%; viability at 24 h, up to 10 µM [6]: ≥ 94.4%; Activity (SH-SY5Y [8]): 74.4%
